Data on six compounds can be found in patent US20220089629A1, “AMORPHOUS SIALYLATED OLIGOSACCHARIDES” (GLYCOM A/S, priority 2019, published 2022).

Structures are written as SMILES. Where a name gives a salt, the structure may show the parent alone.

The nature of series [1]: pH measurement of aqueous solutions by pH-meter. In kind it is physicochemical. The note with it: for pH of aqueous stock solution: before pH adjustment. As for the experimental part:
When a pH value is referred to, it is measured by a pH-meter conventionally.
3′-SL Na-salt was made by bacterial fermentation and isolated in accordance with e.g. WO 2017/152918. An aqueous stock solution was made the concentration of which was 5.3 g/100 g, pH: 4.8.
Series A: a part of the above aqueous stock solution was adjusted to pH of 3.6 by addition of 1 M HCl-solution. The so-obtained solution was freeze-dried to give a white amorphous powder. The pH of its 5 w/w % solution was 3.9.
6′-SL Na-salt was made by bacterial fermentation and isolated in accordance with e.g. US 2018/0002363. An aqueous stock solution was made the concentration of which was 9.1 g/100 g, pH: 5.4.
Series A: a part of the above aqueous stock solution was adjusted to pH of 3.1 by addition of 1 M HCl-solution. The so-obtained solution was freeze-dried to give a white amorphous powder. The pH of its 5 w/w % solution was 3.5.

Series [2] can be described thus: Forced heat stability test of freeze-dried amorphous 3′-SL samples, analysed by HPAEC-PAD. In kind it is physicochemical. Here is the method: Seven by one gram from each series, separately, was put into 4 ml glass vials and closed with screw lid containing teflon inliner (21 samples altogether). Three samples from each series were put into a 60° C. oven, and another three samples from each series were put into a 80° C. oven. One samples from each series was removed from the ovens after a time indicated below and kept in a freezer until analysis. The t=0 samples (one sample from each series) were kept in freezer during the entire time of the test.
The samples were analysed together after the longest incubation had finished by HPAEC-PAD on Carbopac PA-200 (3×250 mm) column using isocratic 75 mM NaOH+37.5 mM NaOAc eluent.

Regarding `CC(=O)N[C@H]1[C@H]([C@H](O)[C@H](O)CO)O[C@@](O[C@H]2[C@@H](O)[C@@H](CO)O[C@@H](O[C@H]3[C@H](O)[C@@H](O)C(O)O[C@@H]3CO)[C@@H]2O)(C(=O)O)C[C@@H]1O` (stereo partly drawn) [3′-SL Na-salt, 3′-sialyllactose], the “pH of aqueous stock solution” value in series [1] (concentration 5.3 g/100 g) was found to be 4.8.
On to `CC(=O)N[C@H]1[C@H]([C@H](O)[C@H](O)CO)O[C@@](OC[C@H]2O[C@@H](O[C@H]3[C@H](O)[C@@H](O)[C@H](O)O[C@@H]3CO)[C@H](O)[C@@H](O)[C@H]2O)(C(=O)O)C[C@@H]1O` [6′-SL Na-salt, 6′-sialyllactose], for which the “pH of aqueous stock solution” value in series [1] (concentration 9.1 g/100 g) turned out to be 5.4.
In the case of `CC(=O)N[C@H]1[C@H]([C@H](O)[C@H](O)CO)O[C@@](O[C@H]2[C@@H](O)[C@@H](CO)O[C@@H](O[C@H]3[C@H](O)[C@@H](O)C(O)O[C@@H]3CO)[C@@H]2O)(C(=O)O)C[C@@H]1O` (stereo partly drawn) [Example 1 Series A, 3′-sialyllactose], the “content of 3′-O-sialyl-lactulose (ketose rearranged derivative of 3′-SL) in the sample” value (from here on “content of 3′-O-sialyl-lactulose”) is given as 1.66 area % in series [2] (60° C., 2 weeks, solid in closed vial, listed as sample A); 2.12 area % in series [2] (60° C., 4 weeks, solid in closed vial, listed as sample A); 1.96 area % in series [2] (60° C., 6 weeks, solid in closed vial, listed as sample A); 1.91 area % in series [2] (80° C., 1 weeks, solid in closed vial, listed as sample A); 1.97 area % in series [2] (80° C., 2 weeks, solid in closed vial, listed as sample A); 2.24 area % in series [2] (80° C., 4 weeks, solid in closed vial, listed as sample A). Further, in series [2] (t = 0, kept in freezer, listed as sample A), the “content of 3′-O-sialyl-lactulose” value is 1.75 area %.
`CC(=O)N[C@H]1[C@H]([C@H](O)[C@H](O)CO)O[C@@](O[C@H]2[C@@H](O)[C@@H](CO)O[C@@H](O[C@H]3[C@H](O)[C@@H](O)C(O)O[C@@H]3CO)[C@@H]2O)(C(=O)O)C[C@@H]1O` (stereo partly drawn) [Example 1 Series B, 3′-sialyllactose]: the “content of 3′-O-sialyl-lactulose” value turned out to be 2.16 area % in series [2] (60° C., 2 weeks, solid in closed vial, listed as sample B); 2.16 area % in series [2] (60° C., 4 weeks, solid in closed vial, listed as sample B); 2.31 area % in series [2] (60° C., 6 weeks, solid in closed vial, listed as sample B); 2.34 area % in series [2] (80° C., 1 weeks, solid in closed vial, listed as sample B); 2.39 area % in series [2] (80° C., 2 weeks, solid in closed vial, listed as sample B); 2.88 area % in series [2] (80° C., 4 weeks, solid in closed vial, listed as sample B). In series [2] (t = 0, kept in freezer, listed as sample B), the “content of 3′-O-sialyl-lactulose” value worked out at 1.77 area %.
As to `CC(=O)N[C@H]1[C@H]([C@H](O)[C@H](O)CO)O[C@@](O[C@H]2[C@@H](O)[C@@H](CO)O[C@@H](O[C@H]3[C@H](O)[C@@H](O)C(O)O[C@@H]3CO)[C@@H]2O)(C(=O)O)C[C@@H]1O` (stereo partly drawn) [Example 1 Series C, 3′-sialyllactose], the “content of 3′-O-sialyl-lactulose” value in series [2] (60° C., 2 weeks, solid in closed vial, listed as sample C) is on record as 2.67 area %; in series [2] (60° C., 4 weeks, solid in closed vial, listed as sample C), 2.96 area %; in series [2] (60° C., 6 weeks, solid in closed vial, listed as sample C) it was 3.03 area %; in series [2] (80° C., 1 weeks, solid in closed vial, listed as sample C), 2.95 area %; in series [2] (80° C., 2 weeks, solid in closed vial, listed as sample C) it was 3.38 area %; in series [2] (80° C., 4 weeks, solid in closed vial, listed as sample C) it was 4.61 area %. For the same compound, in series [2] (t = 0, kept in freezer, listed as sample C), the “content of 3′-O-sialyl-lactulose” value is reported as 1.81 area %.
Consider `CC(=O)N[C@H]1[C@H]([C@H](O)[C@H](O)CO)O[C@@](OC[C@H]2O[C@@H](O[C@H]3[C@H](O)[C@@H](O)[C@H](O)O[C@@H]3CO)[C@H](O)[C@@H](O)[C@H]2O)(C(=O)O)C[C@@H]1O` [Example 2 Series D, 6′-sialyllactose], for which, in series [1] (5 w/w % aqueous solution after freeze-drying), the “pH of the 5 w/w % solution of the freeze-dried amorphous powder” value amounted to 6.2.
